pIC50: −log10 of the molar value.

Assay [1] addresses T1, recombinant human GBA (beta-glucocerebrosidase) (Homo sapiens, UniProt P04062).
T1 sequence (P04062 40-536): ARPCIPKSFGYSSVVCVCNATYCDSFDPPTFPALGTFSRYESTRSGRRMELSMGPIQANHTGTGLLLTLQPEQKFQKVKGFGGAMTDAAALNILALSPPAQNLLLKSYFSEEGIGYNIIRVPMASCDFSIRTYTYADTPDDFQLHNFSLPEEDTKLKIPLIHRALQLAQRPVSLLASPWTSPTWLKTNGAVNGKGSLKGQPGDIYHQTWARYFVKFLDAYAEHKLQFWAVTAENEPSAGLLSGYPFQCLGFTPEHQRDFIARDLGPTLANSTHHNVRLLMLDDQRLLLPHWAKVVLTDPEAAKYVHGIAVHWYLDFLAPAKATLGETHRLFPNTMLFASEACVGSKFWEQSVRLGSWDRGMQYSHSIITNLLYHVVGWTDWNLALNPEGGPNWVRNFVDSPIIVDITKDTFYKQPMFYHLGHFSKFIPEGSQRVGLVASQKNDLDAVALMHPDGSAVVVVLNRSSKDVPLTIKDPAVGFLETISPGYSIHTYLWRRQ
The experiment in a line: Beta-glucocerebrosidase (GBA, glucosylceramidase) assay (4-methylumbelliferyl-beta-D-pyranoside substrate, fluorescence). The assay is classed as biochemical. The protocol:
Beta-glucocerebrosidase (GBA, also referred to glucosylceramidase): To analyze inhibitory effects of a test compound, commercially available recombinant human GBA was incubated with multiple dilutions of test compound for 60 minutes at 37° C. 4-methylumbelliferyl-beta-D-pyranoside was then introduced to the mixture as substrate. Following incubation for 60 minutes at 37° C., 1,4-methyllumbelliferone was generated, and the reaction was stopped with the stop solution (0.5 M glycine; 0.3 M NaOH, pH 10). 1,4-methyllumbelliferone was detected by fluorescence (excitation at 365 nm, emission at 440 nm). Relative fluorescence compared to untreated enzymatic activity and test compound concentration is then plotted as a function of percent inhibition. The IC50 was determined using a 4-PL curve fit as the measure of relative inhibitory activity of each test compound (see Table 3).

The target in assay [2] is rat maltase (partially purified alpha-glucosidase from intestinal rat powder). The experiment in a line: Intestinal alpha-glucosidase assay, maltose substrate (Glucose GO Kit). The assay is classed as biochemical. The method, boiled down:
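Partially purified alpha-glucosidase from rat intestinal powder was preincubated 60 min at 37 °C with serial compound dilutions, then given maltose or sucrose and incubated 30 min at 37 °C.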

`O=Cc1cc(NCCCCCCN2C[C@H](O)[C@@H](O)[C@H](O)[C@H]2CO)cc(-c2ncccn2)c1` [Compound 1129, 3-(pyrimidin-2-yl)-5-({6-[(2R,3R,4R,5S)-3,4,5-trihydroxy-2-(hydroxymethyl)piperidin-1-yl]hexyl}amino)benzaldehyde]: the pIC50 in assay [1] is 5.56; in assay [2] it was 8.30.
On the same counts, the results for `[N-]=[N+]=Nc1ccc(NCC/C=C/CCN2C[C@H](O)[C@@H](O)[C@H](O)[C@H]2CO)c([N+](=O)[O-])c1` [Compound 1260, (2R,3R,4R,5S)-1-[(3E)-6-[(4-azido-2-nitrophenyl)amino]hex-3-en-1-yl]-2-(hydroxymethyl)piperidine-3,4,5-triol] are 5.81 and greater than 9.00.
Regarding `OC[C@@H]1[C@@H](O)[C@H](O)[C@@H](O)CN1CCCCCCNc1cc(-c2cccnn2)cc(C2CC2)c1` [Compound 1008, (2R,3R,4R,5S)-1-(6-{[3-cyclopropyl-5-(pyridazin-3-yl)phenyl]amino}hexyl)-2-(hydroxymethyl)piperidine-3,4,5-triol], the pIC50 in assay [1] was 5.63; in assay [2] it was 8.22.
The corresponding values for `N#Cc1cc(Cl)cc(NCCc2ccc(CCN3C[C@H](O)[C@@H](O)[C@H](O)[C@H]3CO)cc2)c1` [Compound 1134, 3-chloro-5-{[2-(4-{2-[(2R,3R,4R,5S)-3,4,5-trihydroxy-2-(hydroxymethyl)piperidin-1-yl]ethyl}phenyl)ethyl]amino}benzonitrile] are 5.63 and 6.89.
On the same counts, the results for `CS(=O)(=O)c1cc(NCc2cccc(CN3C[C@H](O)[C@@H](O)[C@H](O)[C@H]3CO)c2)cc(-c2ncccn2)c1` [Compound 1041, (2R,3R,4R,5S)-2-(hydroxymethyl)-1-{[3-({[3-methanesulfonyl-5-(pyrimidin-2-yl)phenyl]amino}methyl)phenyl]methyl}piperidine-3,4,5-triol] are less than 4.00 and 7.10.
On the same counts, the results for `CN(C)C(=O)c1cc(NCCCCCCN2C[C@H](O)[C@@H](O)[C@H](O)[C@H]2CO)cc(-c2ncccn2)c1` [Compound 1126, N,N-dimethyl-3-(pyrimidin-2-yl)-5-({6-[(2R,3R,4R,5S)-3,4,5-trihydroxy-2-(hydroxymethyl)piperidin-1-yl]hexyl}amino)benzamide] are 5.15 and 7.64.
For `OC[C@@H]1[C@@H](O)[C@H](O)[C@@H](O)CN1Cc1ccc(CNc2cc(-c3cccnn3)cc(C3CC3)c2)cc1` [Compound 1012, (2R,3R,4R,5S)-1-{[4-({[3-cyclopropyl-5-(pyridazin-3-yl)phenyl]amino}methyl)phenyl]methyl}-2-(hydroxymethyl)piperidine-3,4,5-triol], the pIC50 in assay [1] is 4.49; in assay [2] it was 8.05.
The corresponding values for `[N-]=[N+]=Nc1ccc(NCCc2cnn(CCN3C[C@H](O)[C@@H](O)[C@H](O)[C@H]3CO)c2)c([N+](=O)[O-])c1` [Compound 1191, (2R,3R,4R,5S)-1-[2-(4-{2-[(4-azido-2-nitrophenyl)amino]ethyl}-1H-pyrazol-1-yl)ethyl]-2-(hydroxymethyl)piperidine-3,4,5-triol] are 4.54 and 6.77.
On the same counts, the results for `OC[C@@H]1[C@@H](O)[C@H](O)[C@@H](O)CN1CCCCCCNc1cc(-c2ncccn2)cc(C2CC2)c1` [Compound 1009, (2R,3R,4R,5S)-1-(6-{[3-cyclopropyl-5-(pyrimidin-2-yl)phenyl]amino}hexyl)-2-(hydroxymethyl)piperidine-3,4,5-triol] are 5.59 and 8.15.
The corresponding values for `OC[C@@H]1[C@@H](O)[C@H](O)[C@@H](O)CN1Cc1ccc(CNc2cc(-c3ncccn3)cc(C3CC3)c2)cc1` [Compound 1013, (2R,3R,4R,5S)-1-{[4-({[3-cyclopropyl-5-(pyrimidin-2-yl)phenyl]amino}methyl)phenyl]methyl}-2-(hydroxymethyl)piperidine-3,4,5-triol] are less than 4.00 and 8.30.
Turning to `COc1cc(Cc2ccccc2)cc(NCCCCCCN2C[C@H](O)[C@@H](O)[C@H](O)[C@H]2CO)c1` [Compound 1145, (2R,3R,4R,5S)-1-{6-[(3-benzyl-5-methoxyphenyl)amino]hexyl}-2-(hydroxymethyl)piperidine-3,4,5-triol], the pIC50 was 6.34 in assay [1] and greater than 9.00 in assay [2].
The corresponding values for `OC[C@@H]1[C@@H](O)[C@H](O)[C@@H](O)CN1Cc1ccc(CNc2cc(C3CC3)cc(N3CCOCC3)c2)cc1` [Compound 1010, (2R,3R,4R,5S)-1-{[4-({[3-cyclopropyl-5-(morpholin-4-yl)phenyl]amino}methyl)phenyl]methyl}-2-(hydroxymethyl)piperidine-3,4,5-triol] are less than 4.00 and 7.92.
Consider `COC(OC)c1cc(NCCCCCCN2C[C@H](O)[C@@H](O)[C@H](O)[C@H]2CO)cc(-c2ncccn2)c1` [Compound 1124, (2R,3R,4R,5S)-1-(6-{[3-(dimethoxymethyl)-5-(pyrimidin-2-yl)phenyl]amino}hexyl)-2-(hydroxymethyl)piperidine-3,4,5-triol], for which the pIC50 is 5.52 in assay [1] and 7.64 in assay [2].
On to `Cc1cc(NCc2cccc(CN3C[C@H](O)[C@@H](O)[C@H](O)[C@H]3CO)n2)cc(-c2ccc[nH]2)c1` [Compound 1335, (2R,3R,4R,5S)-2-(hydroxymethyl)-1-{[6-({[3-methyl-5-(1H-pyrrol-2-yl)phenyl]amino}methyl)pyridin-2-yl]methyl}piperidine-3,4,5-triol], for which the pIC50 in assay [1] was 4.67; in assay [2] it was 6.64.
On the same counts, the results for `Cc1cc(-c2ccco2)ccc1NCc1ccc(CN2C[C@H](O)[C@@H](O)[C@H](O)[C@H]2CO)cc1` [Compound 1324, (2R,3R,4R,5S)-1-{[4-({[4-(furan-2-yl)-2-methylphenyl]amino}methyl)phenyl]methyl}-2-(hydroxymethyl)piperidine-3,4,5-triol] are 4.47 and greater than 9.00.
As for `[N-]=[N+]=Nc1ccc(NCc2ccc(-c3ccc(CN4C[C@H](O)[C@@H](O)[C@H](O)[C@H]4CO)cc3)cc2)c([N+](=O)[O-])c1` [Compound 1166, (2R,3R,4R,5S)-1-[(4′-{[(4-azido-2-nitrophenyl)amino]methyl}-[1,1′-biphenyl]-4-yl)methyl]-2-(hydroxymethyl)piperidine-3,4,5-triol], the pIC50 was 5.25 in assay [1] and greater than 9.00 in assay [2].
As to `[N-]=[N+]=Nc1ccc(NCCc2ccc(CCN3C[C@H](O)[C@@H](O)[C@H](O)[C@H]3CO)s2)c([N+](=O)[O-])c1` [Compound 1186, (2R,3R,4R,5S)-1-[2-(5-{2-[(4-azido-2-nitrophenyl)amino]ethyl}hiophen-2-yl)ethyl]-2-(hydroxymethyl)piperidine-3,4,5-triol], the pIC50 in assay [1] is 5.89; in assay [2], 8.30.
On the same counts, the results for `[N-]=[N+]=Nc1ccc(NCc2cc(CCN3C[C@H](O)[C@@H](O)[C@H](O)[C@H]3CO)cs2)c([N+](=O)[O-])c1` [Compound 1174, (2R,3R,4R,5S)-1-[2-(5-{[(4-azido-2-nitrophenyl)amino]methyl}thiophen-3-yl)ethyl]-2-(hydroxymethyl)piperidine-3,4,5-triol] are 6.09 and greater than 9.00.
On the same counts, the results for `COc1cc(CC2CCOC2)cc(NCCCCCCN2C[C@H](O)[C@@H](O)[C@H](O)[C@H]2CO)c1` (stereo partly drawn) [Compound 1141, (2R,3R,4R,5S)-2-(hydroxymethyl)-1-[6-({3-methoxy-5-[(oxolan-3-yl)methyl]phenyl}amino)hexyl]piperidine-3,4,5-triol] are 5.09 and 7.37.
The corresponding values for `COc1cc(-c2cnccn2)ccc1NCCCCCCN1C[C@H](O)[C@@H](O)[C@H](O)[C@H]1CO` [Compound 1199, (2R,3R,4R,5S)-2-(hydroxymethyl)-1-(6-{[2-methoxy-4-(pyrazin-2-yl)phenyl]amino}hexyl)piperidine-3,4,5-triol] are 5.40 and 8.10.
Take `CS(=O)(=O)Nc1ccc(NCCCCCCN2C[C@H](O)[C@@H](O)[C@H](O)[C@H]2CO)c([N+](=O)[O-])c1` [Compound 1300, N-[3-nitro-4-({6-[(2R,3R,4R,5S)-3,4,5-trihydroxy-2-(hydroxy-methyl)piperidin-1-yl]hexyl}amino)phenyl]methanesulfonamide]: the values for the pIC50 in assay [1] and in assay [2] were 7.59 and greater than 8.00, respectively.
The corresponding values for `COc1cc(NCCCCCCN2C[C@H](O)[C@@H](O)[C@H](O)[C@H]2CO)cc(C2CCCO2)c1` (stereo partly drawn) [Compound 1146, (2R,3R,4R,5S)-2-(hydroxymethyl)-1-(6-{[3-methoxy-5-(oxolan-2-yl)phenyl]amino}hexyl)piperidine-3,4,5-triol] are 5.66 and 7.64.

The values are drawn from US20250197372A1 (priority 2020, published 2025).
